Earlier results in patent US20240083845A1 (priority 2020, published 2024).

Legend:
[1] = test system: ten further coronavirus strains; conditions: read-out: Ki values against ten further coronavirus strains; cited from earlier work
live virus = conditions: cited from earlier work

In the case of PF-00835231, the Ki [1] is given as 0.03 to 4 nM and the “activity in cell-based live virus assays” value (live virus) is given as ~1 µM.
